How the values were obtained:
[1] = biological target: EGFR (L858R) (Homo sapiens, UniProt P00533, L858R); experiment: Kinase assays, selectivity panel (qPCR); conditions: read-out: % Control @ 300 nM
[2] = tested on: NCI-H460; experiment: NCI screening panel (SRB); assay type: cell-based; conditions: Homo sapiens, NCI-H460 (NSCLC), 48 h; for CC50: read-out: LC50 (the source's name)
[3] = tested on: IGROV1; experiment: NCI screening panel (SRB); assay type: cell-based; conditions: Homo sapiens, IGROV-1, IGROV1 (Ovarian), 48 h; for CC50: read-out: LC50 (the source's name)
[4] = tested on: SF-268; experiment: NCI screening panel (SRB); assay type: cell-based; conditions: Homo sapiens, SF-268 (CNS), 48 h; for CC50: read-out: LC50 (the source's name)
[5] = tested on: HCT-116; experiment: NCI screening panel (SRB); assay type: cell-based; conditions: Homo sapiens, HCT-116 (Colon), 48 h; for CC50: read-out: LC50 (the source's name)
[6] = tested on: SNB-19; experiment: NCI screening panel (SRB); assay type: cell-based; conditions: Homo sapiens, SNB-19 (CNS), 48 h; for CC50: read-out: LC50 (the source's name)
[7] = tested on: RXF393; experiment: NCI screening panel (SRB); assay type: cell-based; conditions: Homo sapiens, RXF 393, RXF393 (Renal), 48 h; for CC50: read-out: LC50 (the source's name)
[8] = tested on: NCI-H522; experiment: NCI screening panel (SRB); assay type: cell-based; conditions: Homo sapiens, NCI-H522 (NSCLC), 48 h; for CC50: read-out: LC50 (the source's name)
[9] = biological target: EGFR (Homo sapiens, UniProt P00533); experiment: Kinase assays, selectivity panel (qPCR); conditions: read-out: % Control @ 300 nM
Sequence of EGFR (P00533 25-1210): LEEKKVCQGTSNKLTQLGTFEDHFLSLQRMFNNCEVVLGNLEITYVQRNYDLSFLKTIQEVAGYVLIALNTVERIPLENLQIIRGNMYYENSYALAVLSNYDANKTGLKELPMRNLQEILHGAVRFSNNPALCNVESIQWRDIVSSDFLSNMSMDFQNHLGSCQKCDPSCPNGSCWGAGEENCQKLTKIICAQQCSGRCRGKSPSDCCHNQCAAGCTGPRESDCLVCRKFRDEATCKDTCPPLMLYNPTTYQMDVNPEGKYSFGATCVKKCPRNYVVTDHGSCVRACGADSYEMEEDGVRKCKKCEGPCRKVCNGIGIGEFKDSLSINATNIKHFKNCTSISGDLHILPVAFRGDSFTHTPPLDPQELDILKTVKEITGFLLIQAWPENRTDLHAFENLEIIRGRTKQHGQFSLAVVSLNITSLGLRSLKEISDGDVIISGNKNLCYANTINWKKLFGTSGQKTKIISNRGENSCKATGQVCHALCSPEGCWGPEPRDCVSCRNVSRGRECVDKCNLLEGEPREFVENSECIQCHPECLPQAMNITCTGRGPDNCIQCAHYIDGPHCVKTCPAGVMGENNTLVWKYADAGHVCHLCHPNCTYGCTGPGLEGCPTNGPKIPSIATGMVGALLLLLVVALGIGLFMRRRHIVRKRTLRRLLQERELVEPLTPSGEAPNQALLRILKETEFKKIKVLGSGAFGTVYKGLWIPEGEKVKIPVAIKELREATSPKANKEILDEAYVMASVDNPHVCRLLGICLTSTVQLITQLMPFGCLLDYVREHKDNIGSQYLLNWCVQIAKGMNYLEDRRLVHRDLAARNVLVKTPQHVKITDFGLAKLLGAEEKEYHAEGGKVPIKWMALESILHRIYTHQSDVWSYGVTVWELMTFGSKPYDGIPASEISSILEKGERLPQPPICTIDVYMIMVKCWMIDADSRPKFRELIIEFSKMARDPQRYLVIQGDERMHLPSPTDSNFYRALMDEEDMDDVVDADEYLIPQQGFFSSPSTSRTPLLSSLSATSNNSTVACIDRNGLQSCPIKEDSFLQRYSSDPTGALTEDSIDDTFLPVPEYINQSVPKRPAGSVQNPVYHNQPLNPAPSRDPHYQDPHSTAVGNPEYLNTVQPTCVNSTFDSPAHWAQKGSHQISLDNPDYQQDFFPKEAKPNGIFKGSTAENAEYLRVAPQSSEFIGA

[10] = biological target: T1, EPHA2 (Homo sapiens, UniProt P29317); experiment: Binding to EPHA (kinase competition binding, qPCR); conditions: 300 nM, read-out: % Control @ 300 nM
T1 construct: T7 phage fusion (kinase-tagged phage) or DNA tag for qPCR; made in house; host or cells: E. coli BL21-derived host (T7 phage) or HEK-293
Method: (§1) The lysates were centrifuged and filtered to remove cell debris. […] All reactions were performed in polystyrene 96-well plates in a final volume of 0.135 ml.

[11] = biological target: T2, EPHA8 (Homo sapiens, UniProt P29322); experiment: Binding to EPHA (kinase competition binding, qPCR); conditions: 300 nM, read-out: % Control @ 300 nM
T2 construct: T7 phage fusion (kinase-tagged phage) or DNA tag for qPCR; made in house; host or cells: E. coli BL21-derived host (T7 phage) or HEK-293
Method: as §1

[12] = biological target: T3, EPHA7 (Homo sapiens, UniProt Q15375); experiment: Binding to EPHA (kinase competition binding, qPCR); conditions: 300 nM, read-out: % Control @ 300 nM
T3 construct: T7 phage fusion (kinase-tagged phage) or DNA tag for qPCR; made in house; host or cells: E. coli BL21-derived host (T7 phage) or HEK-293
Method: as §1

[13] = biological target: T4, EPHA1 (Homo sapiens, UniProt P21709); experiment: Binding to EPHA (kinase competition binding, qPCR); conditions: 300 nM, read-out: % Control @ 300 nM
T4 construct: T7 phage fusion (kinase-tagged phage) or DNA tag for qPCR; made in house; host or cells: E. coli BL21-derived host (T7 phage) or HEK-293
T4 sequence (P21709 26-976): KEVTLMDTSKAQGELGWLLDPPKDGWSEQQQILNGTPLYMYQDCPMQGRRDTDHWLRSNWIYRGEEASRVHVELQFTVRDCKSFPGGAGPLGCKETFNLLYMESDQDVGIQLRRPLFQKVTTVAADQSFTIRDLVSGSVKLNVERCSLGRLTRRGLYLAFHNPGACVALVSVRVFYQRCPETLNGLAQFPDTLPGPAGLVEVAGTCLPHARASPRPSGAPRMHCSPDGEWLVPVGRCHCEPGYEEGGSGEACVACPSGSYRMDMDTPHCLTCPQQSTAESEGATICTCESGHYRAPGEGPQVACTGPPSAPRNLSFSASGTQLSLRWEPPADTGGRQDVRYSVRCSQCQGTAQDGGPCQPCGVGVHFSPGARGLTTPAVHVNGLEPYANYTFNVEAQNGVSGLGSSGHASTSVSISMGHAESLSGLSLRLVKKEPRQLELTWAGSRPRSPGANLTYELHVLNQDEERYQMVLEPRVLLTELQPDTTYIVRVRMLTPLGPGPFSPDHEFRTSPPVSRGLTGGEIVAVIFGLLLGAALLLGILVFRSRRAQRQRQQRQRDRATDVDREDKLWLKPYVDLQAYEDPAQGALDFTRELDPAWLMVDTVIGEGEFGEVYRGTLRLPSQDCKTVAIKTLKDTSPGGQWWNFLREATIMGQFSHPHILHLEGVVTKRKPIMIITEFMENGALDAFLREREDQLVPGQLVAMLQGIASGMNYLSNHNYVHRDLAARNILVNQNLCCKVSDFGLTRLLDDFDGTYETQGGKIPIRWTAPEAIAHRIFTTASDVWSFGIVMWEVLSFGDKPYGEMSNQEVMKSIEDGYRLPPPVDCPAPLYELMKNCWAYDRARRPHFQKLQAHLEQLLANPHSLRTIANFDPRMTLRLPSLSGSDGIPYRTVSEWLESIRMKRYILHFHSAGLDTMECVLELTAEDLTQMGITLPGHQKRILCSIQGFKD
Method: as §1

[14] = biological target: T5, EPHA4 (Homo sapiens, UniProt P54764); experiment: Binding to EPHA (kinase competition binding, qPCR); conditions: 300 nM, read-out: % Control @ 300 nM
T5 construct: T7 phage fusion (kinase-tagged phage) or DNA tag for qPCR; made in house; host or cells: E. coli BL21-derived host (T7 phage) or HEK-293
Method: as §1

[15] = biological target: T6, EPHA3 (Homo sapiens, UniProt P29320); experiment: Binding to EPHA (kinase competition binding, qPCR); conditions: 300 nM, read-out: % Control @ 300 nM
T6 construct: T7 phage fusion (kinase-tagged phage) or DNA tag for qPCR; made in house; host or cells: E. coli BL21-derived host (T7 phage) or HEK-293
T6 sequence (P29320 21-983): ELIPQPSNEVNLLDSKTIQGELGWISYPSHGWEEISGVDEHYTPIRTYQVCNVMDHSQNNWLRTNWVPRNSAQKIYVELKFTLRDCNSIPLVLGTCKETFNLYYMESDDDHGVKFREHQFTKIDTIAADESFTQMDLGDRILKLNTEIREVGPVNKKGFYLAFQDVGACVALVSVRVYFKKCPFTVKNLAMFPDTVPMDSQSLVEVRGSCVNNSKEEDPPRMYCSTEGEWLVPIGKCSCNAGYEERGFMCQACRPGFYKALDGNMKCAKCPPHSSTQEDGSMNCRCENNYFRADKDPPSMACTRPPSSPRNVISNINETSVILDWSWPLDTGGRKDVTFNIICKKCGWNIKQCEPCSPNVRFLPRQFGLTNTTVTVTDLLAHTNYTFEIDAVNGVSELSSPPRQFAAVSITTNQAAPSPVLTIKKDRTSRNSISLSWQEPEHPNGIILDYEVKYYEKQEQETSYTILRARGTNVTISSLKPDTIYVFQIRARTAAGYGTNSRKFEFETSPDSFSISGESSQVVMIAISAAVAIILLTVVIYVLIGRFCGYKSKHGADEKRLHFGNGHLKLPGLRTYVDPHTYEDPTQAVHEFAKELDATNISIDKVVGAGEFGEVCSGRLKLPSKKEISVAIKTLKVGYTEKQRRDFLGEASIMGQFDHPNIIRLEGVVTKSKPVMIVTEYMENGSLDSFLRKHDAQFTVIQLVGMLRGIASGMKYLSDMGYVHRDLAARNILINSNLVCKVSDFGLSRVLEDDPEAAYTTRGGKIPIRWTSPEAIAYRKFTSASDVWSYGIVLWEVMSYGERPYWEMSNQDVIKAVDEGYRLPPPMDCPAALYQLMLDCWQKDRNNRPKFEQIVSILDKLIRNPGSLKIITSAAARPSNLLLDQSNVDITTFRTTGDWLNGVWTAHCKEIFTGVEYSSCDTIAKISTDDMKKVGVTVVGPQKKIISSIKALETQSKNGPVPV
Method: as §1

[16] = biological target: T7, EPHA5 (Homo sapiens, UniProt P54756); experiment: Binding to EPHA (kinase competition binding, qPCR); conditions: 300 nM, read-out: % Control @ 300 nM
T7 construct: T7 phage fusion (kinase-tagged phage) or DNA tag for qPCR; made in house; host or cells: E. coli BL21-derived host (T7 phage) or HEK-293
Method: as §1

[17] = tested on: A498; experiment: NCI screening panel (SRB); assay type: cell-based; conditions: Homo sapiens, A498 (Renal), 48 h; for CC50: read-out: LC50 (the source's name)
[18] = tested on: DU-145; experiment: NCI screening panel (SRB); assay type: cell-based; conditions: Homo sapiens, DU-145 (Prostate), 48 h; for CC50: read-out: LC50 (the source's name)
[19] = tested on: EKVX; experiment: NCI screening panel (SRB); assay type: cell-based; conditions: Homo sapiens, EKVX (NSCLC), 48 h; for CC50: read-out: LC50 (the source's name)
[20] = tested on: EGFR (L747-T751del, Sins); experiment: Kinase assays, selectivity panel (qPCR)
[21] = tested on: HL-60(TB); experiment: NCI screening panel (SRB); assay type: cell-based; conditions: Homo sapiens, HL-60(TB) (Leukemia), 48 h; for CC50: read-out: LC50 (the source's name)
[22] = biological target: EGFR (G719C) (Homo sapiens, UniProt P00533, G719C); experiment: Kinase assays, selectivity panel (qPCR); conditions: read-out: % Control @ 300 nM
[23] = tested on: MDA-MB-435; experiment: NCI screening panel (SRB); assay type: cell-based; conditions: Homo sapiens, MDA-MB-435 (Melanoma), 48 h; for CC50: read-out: LC50 (the source's name)
[24] = biological target: EGFR (E746-A750del) (Homo sapiens, UniProt P00533, DEL746-750); experiment: Kinase assays, selectivity panel (qPCR); conditions: read-out: % Control @ 300 nM
[25] = tested on: KM12; experiment: NCI screening panel (SRB); assay type: cell-based; conditions: Homo sapiens, KM12 (Colon), 48 h; for CC50: read-out: LC50 (the source's name)
[26] = tested on: SNB-75; experiment: NCI screening panel (SRB); assay type: cell-based; conditions: Homo sapiens, SNB-75 (CNS), 48 h; for CC50: read-out: LC50 (the source's name)
[27] = tested on: MOLT-4; experiment: NCI screening panel (SRB); assay type: cell-based; conditions: Homo sapiens, MOLT-4 (Leukemia), 48 h; for CC50: read-out: LC50 (the source's name)
[28] = biological target: EGFR (L747-S752del, P753S) (Homo sapiens, UniProt P00533, DEL747-752/P753S); experiment: Kinase assays, selectivity panel (qPCR); conditions: read-out: % Control @ 300 nM

Sequence of EGFR (L858R) (P00533 25-1210 L858R): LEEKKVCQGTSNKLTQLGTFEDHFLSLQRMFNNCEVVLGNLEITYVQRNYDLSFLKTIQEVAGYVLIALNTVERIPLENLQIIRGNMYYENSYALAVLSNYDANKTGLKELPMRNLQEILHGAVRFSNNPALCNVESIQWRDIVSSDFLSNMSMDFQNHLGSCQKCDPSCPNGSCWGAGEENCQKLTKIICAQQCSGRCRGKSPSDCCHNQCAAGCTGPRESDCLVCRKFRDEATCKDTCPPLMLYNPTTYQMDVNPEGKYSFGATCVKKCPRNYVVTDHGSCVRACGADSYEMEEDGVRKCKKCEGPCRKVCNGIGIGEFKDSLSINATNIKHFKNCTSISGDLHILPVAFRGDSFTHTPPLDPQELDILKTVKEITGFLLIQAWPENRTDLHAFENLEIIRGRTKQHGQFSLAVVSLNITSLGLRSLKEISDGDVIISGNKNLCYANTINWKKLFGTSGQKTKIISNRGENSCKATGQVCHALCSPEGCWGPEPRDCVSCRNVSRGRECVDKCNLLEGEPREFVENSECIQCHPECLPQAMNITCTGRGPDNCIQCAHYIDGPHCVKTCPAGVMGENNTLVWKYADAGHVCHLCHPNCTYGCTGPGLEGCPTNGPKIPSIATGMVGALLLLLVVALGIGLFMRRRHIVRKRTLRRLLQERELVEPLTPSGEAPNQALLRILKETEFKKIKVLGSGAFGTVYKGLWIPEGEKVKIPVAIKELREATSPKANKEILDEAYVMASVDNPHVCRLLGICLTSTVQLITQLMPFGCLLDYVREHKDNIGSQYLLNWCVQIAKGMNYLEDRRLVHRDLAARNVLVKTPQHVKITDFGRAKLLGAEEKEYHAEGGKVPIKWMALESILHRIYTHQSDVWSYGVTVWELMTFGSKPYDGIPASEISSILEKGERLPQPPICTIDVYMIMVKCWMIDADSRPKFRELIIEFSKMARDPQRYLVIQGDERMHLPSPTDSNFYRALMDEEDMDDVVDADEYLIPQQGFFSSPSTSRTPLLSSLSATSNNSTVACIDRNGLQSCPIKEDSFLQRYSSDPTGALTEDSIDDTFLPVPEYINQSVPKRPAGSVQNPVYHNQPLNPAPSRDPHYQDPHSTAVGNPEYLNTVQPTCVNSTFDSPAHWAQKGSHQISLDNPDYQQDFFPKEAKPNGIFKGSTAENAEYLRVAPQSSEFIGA

Compound O=C(/C=C/CN1CCCCC1)Nc1cc2c(Nc3ccc(F)c(Cl)c3F)ncnc2cc1OCCOC(F)F.O=C(O)/C=C\C(=O)O.O=C(O)/C=C\C(=O)O [Example I-10-MA, (E)-N-[4-(3-chloro-2,4-difluoro-anilino)-7-[2-(difluoromethoxy)ethoxy]quinazolin-6-yl]-4-(1-piperidyl)but-2-enamide di-maleic acid salt] has a remaining activity at 0.3 µM [1] of 0.4%, a GI50 [2] of 2.34 µM and a CC50 [2] of 54.4 µM. For the same compound, the GI50 [3] was 0.0331 µM, the CC50 [3] was over 100 µM and the GI50 [4] was 1.25 µM. For the same compound, the CC50 [4] was 41.7 µM, the GI50 [5] was 1.54 µM and the CC50 [5] was 88.9 µM. The GI50 [6] was 2.16 µM, the CC50 [6] was 68.8 µM and the GI50 [7] was 0.959 µM. It also gave a CC50 [7] of 33.3 µM, a GI50 [8] of 0.0559 µM and a CC50 [8] of 7.8 µM. For the same compound, the remaining activity at 0.3 µM [9] was 2.7%, the remaining binding at 0.3 µM [10] was 80% and the remaining binding at 0.3 µM [11] was 33%. It also gave a remaining binding at 0.3 µM [12] of 40%, a remaining binding at 0.3 µM [13] of 24% and a remaining binding at 0.3 µM [14] of 50%. The remaining binding at 0.3 µM [15] was 45%, the remaining binding at 0.3 µM [16] was 49% and the GI50 [17] was 0.313 µM. For the same compound, the CC50 [17] was 5.92 µM, the GI50 [18] was 0.266 µM and the CC50 [18] was 37.8 µM. The GI50 [19] was 0.0347 µM, the CC50 [19] was 23.9 µM and the “% Control @ 300 nM” value [20] was 0%. It also gave a GI50 [21] of 1.75 µM, a CC50 [21] of 30.8 µM and a remaining activity at 0.3 µM [22] of 0%. The GI50 [23] was 1.8 µM, the CC50 [23] was 28.6 µM and the remaining activity at 0.3 µM [24] was 2.7%. It also gave a GI50 [25] of 2.67 µM, a CC50 [25] of 34.3 µM and a GI50 [26] of 0.274 µM. For the same compound, the CC50 [26] was 31 µM, the GI50 [27] was 1.12 µM and the CC50 [27] was 98.4 µM. It also gave a remaining activity at 0.3 µM [28] of 2.5%.
Work on CN(C)C/C=C/C(=O)Nc1cc2c(Nc3ccc(F)c(Cl)c3F)ncnc2cc1OCCOC(F)F.O=C(O)/C=C\C(=O)O.O=C(O)/C=C\C(=O)O [Example I-9-MA, (E)-N-[4-(3-chloro-2,4-difluoro-anilino)-7-[2-(difluoromethoxy)ethoxy]quinazolin-6-yl]-4-(dimethylamino)but-2-enamide di-maleic acid salt] yielded a remaining activity at 0.3 µM [1] of 0%, a GI50 [2] of 2.56 µM and a CC50 [2] of 62 µM. The GI50 [3] was under 0.01 µM, the CC50 [3] was 32.5 µM and the GI50 [4] was 0.747 µM. For the same compound, the CC50 [4] was 27.3 µM, the GI50 [5] was 0.483 µM and the CC50 [5] was 22.4 µM. For the same compound, the GI50 [6] was 1.6 µM, the CC50 [6] was 36.6 µM and the GI50 [7] was 0.351 µM. It also gave a CC50 [7] of 15.1 µM, a GI50 [8] of under 0.01 µM and a CC50 [8] of 9.17 µM. It also gave a remaining activity at 0.3 µM [9] of 0.7%, a remaining binding at 0.3 µM [10] of 92% and a remaining binding at 0.3 µM [11] of 40%. The remaining binding at 0.3 µM [12] was 56%, the remaining binding at 0.3 µM [13] was 34% and the remaining binding at 0.3 µM [14] was 51%. The remaining binding at 0.3 µM [15] was 46%, the remaining binding at 0.3 µM [16] was 51% and the GI50 [17] was 0.319 µM. It also gave a CC50 [17] of 6 µM, a GI50 [18] of 0.14 µM and a CC50 [18] of 20.8 µM. For the same compound, the GI50 [19] was under 0.01 µM, the CC50 [19] was 19.6 µM and the “% Control @ 300 nM” value [20] was 8.6%. It also gave a GI50 [21] of 1.73 µM, a CC50 [21] of 32.2 µM and a remaining activity at 0.3 µM [22] of 1.1%. The GI50 [23] was 1.17 µM, the CC50 [23] was 27.2 µM and the remaining activity at 0.3 µM [24] was 3.6%. The GI50 [25] was 1.88 µM, the CC50 [25] was 29.2 µM and the GI50 [26] was 0.129 µM. It also gave a CC50 [26] of 23.6 µM, a GI50 [27] of 0.849 µM and a CC50 [27] of 47.5 µM. The remaining activity at 0.3 µM [28] was 2.8%.

— patent US20190016689A1, “NOVEL FLUORINATED QUINAZOLINE DERIVATIVES AS EGFR INHIBITORS” (TRILLIUM THERAPEUTICS INC., priority 2016, published 2019)
